Laboratory results: BigSolDB 2.1

C[n+]1ccn(CCOCCOCCn2cc[n+](C)c2)c1.F[P-](F)(F)(F)(F)F.F[P-](F)(F)(F)(F)F
solubility (mole fraction)
Details	283 K	288 K	293 K	298 K	303 K	308 K
in DMF	0.098	0.101	0.105	0.109	0.113	–
in DMSO	–	–	0.106	0.119	0.131	0.14
in ethanol	3.3e-05	4e-05	4.7e-05	5.7e-05	7.2e-05	–
in methanol	0.000198	0.000231	0.000285	0.000369	0.000502	–
in water	0.00015	0.000197	0.000257	0.000334	0.00043	–
